Reference: paper PMC4979471 (Cell Death Discovery, 2015)
Where two headings read alike, the source gives them in different places.

Key:
Experiment in all cases: Kinase selectivity, P33-radiolabeled assay
Assay type in all cases: biochemical
Settings in all cases: 10 μM ATP
PKD2/PRKD2 = molecular target: T1, PKD2/PRKD2 (Homo sapiens, UniProt Q9BZL6)
T1 construct: purchased Reaction Biology Corp
T1 sequence (Q9BZL6 1-878): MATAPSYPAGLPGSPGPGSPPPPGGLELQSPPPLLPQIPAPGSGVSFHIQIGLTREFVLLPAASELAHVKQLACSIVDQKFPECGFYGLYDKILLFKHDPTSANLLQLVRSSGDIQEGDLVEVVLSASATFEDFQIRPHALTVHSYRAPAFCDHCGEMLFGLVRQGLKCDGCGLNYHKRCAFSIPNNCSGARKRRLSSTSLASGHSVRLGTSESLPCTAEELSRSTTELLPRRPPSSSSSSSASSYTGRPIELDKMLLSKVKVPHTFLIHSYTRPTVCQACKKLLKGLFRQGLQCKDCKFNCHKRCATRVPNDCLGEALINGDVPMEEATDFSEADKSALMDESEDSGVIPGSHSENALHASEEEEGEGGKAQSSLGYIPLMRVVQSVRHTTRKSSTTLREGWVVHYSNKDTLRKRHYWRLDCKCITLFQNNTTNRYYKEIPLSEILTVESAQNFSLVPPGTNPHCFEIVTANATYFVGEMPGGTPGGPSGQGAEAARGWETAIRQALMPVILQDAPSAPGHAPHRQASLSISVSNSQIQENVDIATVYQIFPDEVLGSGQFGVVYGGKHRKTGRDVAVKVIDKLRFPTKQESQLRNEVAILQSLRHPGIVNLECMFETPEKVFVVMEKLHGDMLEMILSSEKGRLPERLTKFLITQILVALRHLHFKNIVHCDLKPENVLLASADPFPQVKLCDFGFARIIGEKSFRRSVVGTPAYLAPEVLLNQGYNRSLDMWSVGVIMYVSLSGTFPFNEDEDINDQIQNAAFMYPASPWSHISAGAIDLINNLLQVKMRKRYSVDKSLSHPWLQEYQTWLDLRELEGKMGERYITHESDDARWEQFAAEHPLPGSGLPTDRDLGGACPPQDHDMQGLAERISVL
Procedure, shortened: (§1)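 Duplicate single-concentration testing used 10 μM compound. The ATP concentration was also 10 μM.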

TLK1 = molecular target: T2, TLK1 (Homo sapiens, UniProt Q9UKI8)
T2 construct: purchased Reaction Biology Corp
T2 sequence (Q9UKI8 1-766): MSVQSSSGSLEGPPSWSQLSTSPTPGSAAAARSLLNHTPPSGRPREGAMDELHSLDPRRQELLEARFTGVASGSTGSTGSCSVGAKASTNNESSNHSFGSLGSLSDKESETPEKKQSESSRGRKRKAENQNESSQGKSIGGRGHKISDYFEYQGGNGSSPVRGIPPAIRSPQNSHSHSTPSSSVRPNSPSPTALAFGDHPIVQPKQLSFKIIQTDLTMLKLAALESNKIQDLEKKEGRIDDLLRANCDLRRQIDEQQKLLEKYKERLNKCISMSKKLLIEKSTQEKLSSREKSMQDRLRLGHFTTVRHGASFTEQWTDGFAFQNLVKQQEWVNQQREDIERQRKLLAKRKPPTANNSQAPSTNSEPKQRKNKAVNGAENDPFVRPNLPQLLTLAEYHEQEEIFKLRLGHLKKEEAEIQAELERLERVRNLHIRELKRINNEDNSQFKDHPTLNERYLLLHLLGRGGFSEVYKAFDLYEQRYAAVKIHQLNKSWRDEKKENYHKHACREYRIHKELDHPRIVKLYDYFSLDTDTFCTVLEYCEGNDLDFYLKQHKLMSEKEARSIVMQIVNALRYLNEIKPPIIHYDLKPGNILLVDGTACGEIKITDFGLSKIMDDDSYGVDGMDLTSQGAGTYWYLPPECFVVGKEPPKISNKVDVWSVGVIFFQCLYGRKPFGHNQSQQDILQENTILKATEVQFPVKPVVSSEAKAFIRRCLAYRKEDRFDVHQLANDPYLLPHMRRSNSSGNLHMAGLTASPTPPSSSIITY
Procedure, shortened: as §1

LYN B = molecular target: T3, LYN B (Homo sapiens, UniProt P07948)
T3 construct: purchased Reaction Biology Corp
Procedure, shortened: as §1

MLK2/MAP3K10 = molecular target: T4, MLK2/MAP3K10 (Homo sapiens, UniProt Q02779)
T4 construct: purchased Reaction Biology Corp
Procedure, shortened: as §1

CDK6/cyclin D3 = molecular target: T5, CDK6/cyclin D3 (Homo sapiens, UniProt Q00534)
T5 construct: purchased Reaction Biology Corp
Procedure, shortened: as §1

TYK1/LTK = molecular target: T6, TYK1/LTK (Homo sapiens, UniProt P29376)
T6 construct: purchased Reaction Biology Corp
Procedure, shortened: as §1

SIK2 = molecular target: T7, SIK2 (Homo sapiens, UniProt Q9H0K1)
T7 construct: purchased Reaction Biology Corp
Procedure, shortened: as §1

[1] = read-out: % Enzyme Activity (relative to DMSO controls) AVG
[2] = read-out: % Enzyme Activity (relative to DMSO controls) Data 1
[3] = read-out: % Enzyme Activity (relative to DMSO controls) Data 2

T6 sequence (P29376 17-864): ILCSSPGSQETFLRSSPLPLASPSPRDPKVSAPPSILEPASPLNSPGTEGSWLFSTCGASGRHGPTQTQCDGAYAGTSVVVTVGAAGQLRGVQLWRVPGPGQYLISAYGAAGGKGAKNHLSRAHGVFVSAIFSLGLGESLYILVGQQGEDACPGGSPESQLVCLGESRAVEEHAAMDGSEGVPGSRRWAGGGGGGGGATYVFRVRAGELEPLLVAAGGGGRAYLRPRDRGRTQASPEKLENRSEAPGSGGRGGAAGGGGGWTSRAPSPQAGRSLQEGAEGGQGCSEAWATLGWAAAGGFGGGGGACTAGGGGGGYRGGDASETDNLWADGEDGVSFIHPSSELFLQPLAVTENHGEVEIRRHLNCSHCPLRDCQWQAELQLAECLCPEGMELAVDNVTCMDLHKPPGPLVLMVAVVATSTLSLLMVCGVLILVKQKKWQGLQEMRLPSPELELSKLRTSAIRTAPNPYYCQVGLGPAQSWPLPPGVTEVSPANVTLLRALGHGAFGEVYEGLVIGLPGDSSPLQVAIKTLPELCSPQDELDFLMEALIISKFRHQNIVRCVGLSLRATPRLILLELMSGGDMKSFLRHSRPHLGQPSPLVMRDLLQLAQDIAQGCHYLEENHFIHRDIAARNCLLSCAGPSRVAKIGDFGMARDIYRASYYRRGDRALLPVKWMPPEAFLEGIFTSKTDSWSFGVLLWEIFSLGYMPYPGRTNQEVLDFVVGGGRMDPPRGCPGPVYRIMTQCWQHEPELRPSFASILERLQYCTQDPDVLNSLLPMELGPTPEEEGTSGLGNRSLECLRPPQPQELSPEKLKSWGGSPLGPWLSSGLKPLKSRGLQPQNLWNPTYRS
T4 sequence (Q02779 whole entry): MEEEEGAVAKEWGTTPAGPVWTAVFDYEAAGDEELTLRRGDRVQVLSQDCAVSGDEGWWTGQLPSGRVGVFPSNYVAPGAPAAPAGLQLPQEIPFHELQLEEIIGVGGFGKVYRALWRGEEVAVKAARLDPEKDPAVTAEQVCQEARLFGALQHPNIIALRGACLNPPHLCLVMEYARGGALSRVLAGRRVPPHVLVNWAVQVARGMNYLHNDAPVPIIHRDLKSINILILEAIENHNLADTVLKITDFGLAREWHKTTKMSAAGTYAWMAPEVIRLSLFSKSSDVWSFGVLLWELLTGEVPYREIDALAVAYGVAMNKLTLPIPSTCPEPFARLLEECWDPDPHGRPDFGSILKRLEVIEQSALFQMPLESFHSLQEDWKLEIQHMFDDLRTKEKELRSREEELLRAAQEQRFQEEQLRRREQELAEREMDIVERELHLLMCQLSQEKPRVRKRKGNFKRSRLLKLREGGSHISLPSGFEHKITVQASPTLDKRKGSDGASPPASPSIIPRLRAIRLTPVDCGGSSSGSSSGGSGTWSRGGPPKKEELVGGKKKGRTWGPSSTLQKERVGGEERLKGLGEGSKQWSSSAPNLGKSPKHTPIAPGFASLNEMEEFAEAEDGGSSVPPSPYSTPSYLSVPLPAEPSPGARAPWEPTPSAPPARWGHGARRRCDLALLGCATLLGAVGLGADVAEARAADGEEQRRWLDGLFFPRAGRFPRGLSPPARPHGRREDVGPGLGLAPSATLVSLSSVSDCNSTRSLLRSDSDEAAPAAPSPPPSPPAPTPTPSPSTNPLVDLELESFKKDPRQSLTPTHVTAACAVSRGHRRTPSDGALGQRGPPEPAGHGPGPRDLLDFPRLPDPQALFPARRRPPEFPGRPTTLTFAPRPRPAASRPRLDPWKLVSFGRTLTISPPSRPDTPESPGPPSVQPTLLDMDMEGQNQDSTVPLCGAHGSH
T5 sequence (Q00534 whole entry): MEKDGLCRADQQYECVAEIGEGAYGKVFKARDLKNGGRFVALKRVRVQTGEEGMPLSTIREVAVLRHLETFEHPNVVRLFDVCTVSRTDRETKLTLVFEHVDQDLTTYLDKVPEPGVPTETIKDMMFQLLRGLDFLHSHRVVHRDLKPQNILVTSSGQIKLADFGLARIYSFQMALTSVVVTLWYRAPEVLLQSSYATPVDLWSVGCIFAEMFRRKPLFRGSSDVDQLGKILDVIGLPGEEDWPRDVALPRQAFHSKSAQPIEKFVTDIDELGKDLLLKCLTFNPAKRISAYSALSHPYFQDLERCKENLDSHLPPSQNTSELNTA
T5 sequence (P30281 whole entry partner): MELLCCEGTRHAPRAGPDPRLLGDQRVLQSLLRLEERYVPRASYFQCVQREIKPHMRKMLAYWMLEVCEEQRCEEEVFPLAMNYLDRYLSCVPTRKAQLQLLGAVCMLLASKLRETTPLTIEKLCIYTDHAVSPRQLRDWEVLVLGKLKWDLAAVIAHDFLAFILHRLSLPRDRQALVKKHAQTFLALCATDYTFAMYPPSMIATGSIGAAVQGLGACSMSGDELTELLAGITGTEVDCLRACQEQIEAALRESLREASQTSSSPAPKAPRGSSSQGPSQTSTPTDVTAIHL
T7 sequence (Q9H0K1 whole entry): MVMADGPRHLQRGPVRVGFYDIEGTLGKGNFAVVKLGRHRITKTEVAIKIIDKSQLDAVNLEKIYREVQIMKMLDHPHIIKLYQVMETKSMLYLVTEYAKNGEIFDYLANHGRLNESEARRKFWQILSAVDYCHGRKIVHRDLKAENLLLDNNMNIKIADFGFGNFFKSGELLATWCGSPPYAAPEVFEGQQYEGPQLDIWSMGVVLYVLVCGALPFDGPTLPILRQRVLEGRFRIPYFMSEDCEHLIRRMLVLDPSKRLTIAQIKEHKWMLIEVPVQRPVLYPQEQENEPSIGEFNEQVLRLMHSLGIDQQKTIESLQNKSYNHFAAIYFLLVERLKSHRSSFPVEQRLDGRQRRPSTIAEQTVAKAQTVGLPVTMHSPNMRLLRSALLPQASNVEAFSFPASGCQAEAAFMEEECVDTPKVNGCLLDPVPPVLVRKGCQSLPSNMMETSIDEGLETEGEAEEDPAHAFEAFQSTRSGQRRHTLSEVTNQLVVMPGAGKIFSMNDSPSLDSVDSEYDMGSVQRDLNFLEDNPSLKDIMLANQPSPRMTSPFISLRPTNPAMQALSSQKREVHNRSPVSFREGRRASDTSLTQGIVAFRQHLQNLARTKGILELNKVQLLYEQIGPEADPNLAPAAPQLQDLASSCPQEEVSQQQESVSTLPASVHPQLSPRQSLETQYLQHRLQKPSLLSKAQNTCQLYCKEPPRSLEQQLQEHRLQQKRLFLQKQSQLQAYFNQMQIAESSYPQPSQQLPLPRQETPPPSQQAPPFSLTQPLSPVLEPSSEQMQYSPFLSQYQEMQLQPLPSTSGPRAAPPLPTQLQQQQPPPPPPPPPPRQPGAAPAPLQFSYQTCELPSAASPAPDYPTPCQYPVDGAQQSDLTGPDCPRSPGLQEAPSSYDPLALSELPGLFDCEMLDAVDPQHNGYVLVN
T3 sequence (P07948 1-491 isoform P07948-2): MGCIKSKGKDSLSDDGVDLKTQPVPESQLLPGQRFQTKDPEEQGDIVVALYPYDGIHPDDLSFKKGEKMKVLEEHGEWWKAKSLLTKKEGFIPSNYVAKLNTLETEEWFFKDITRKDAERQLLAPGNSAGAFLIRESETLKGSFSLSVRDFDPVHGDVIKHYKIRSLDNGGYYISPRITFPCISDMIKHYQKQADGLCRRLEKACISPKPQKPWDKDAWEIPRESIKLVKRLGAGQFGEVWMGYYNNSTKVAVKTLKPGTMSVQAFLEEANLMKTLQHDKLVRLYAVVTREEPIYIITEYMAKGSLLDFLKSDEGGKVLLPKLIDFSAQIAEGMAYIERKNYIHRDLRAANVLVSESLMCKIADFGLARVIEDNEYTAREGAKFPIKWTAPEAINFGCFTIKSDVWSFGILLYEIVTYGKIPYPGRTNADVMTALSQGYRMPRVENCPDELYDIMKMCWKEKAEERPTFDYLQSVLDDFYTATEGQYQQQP

For `CC(C)(C)C(=O)N1N=CC[C@H]1c1ccccc1` [GSK′963], the remaining activity at 10 µM (PKD2/PRKD2; [1]) was 102%, the remaining activity at 10 µM (PKD2/PRKD2; [2]) was 101% and the remaining activity at 10 µM (PKD2/PRKD2; [3]) was 104%. It also gave a remaining activity at 10 µM (TLK1; [1]) of 97.5%, a remaining activity at 10 µM (TLK1; [2]) of 101% and a remaining activity at 10 µM (TLK1; [3]) of 93.9%. For the same molecule, the remaining activity at 10 µM (LYN B; [1]) was 99.7%, the remaining activity at 10 µM (LYN B; [2]) was 103% and the remaining activity at 10 µM (LYN B; [3]) was 96%. For the same molecule, the remaining activity at 10 µM (MLK2/MAP3K10; [1]) was 99.4%, the remaining activity at 10 µM (MLK2/MAP3K10; [2]) was 98.6% and the remaining activity at 10 µM (MLK2/MAP3K10; [3]) was 100%. The remaining activity at 10 µM (CDK6/cyclin D3; [1]) was 86.9%, the remaining activity at 10 µM (CDK6/cyclin D3; [2]) was 84.5% and the remaining activity at 10 µM (CDK6/cyclin D3; [3]) was 89.3%. The remaining activity at 10 µM (TYK1/LTK; [1]) was 104%, the remaining activity at 10 µM (TYK1/LTK; [2]) was 104% and the remaining activity at 10 µM (TYK1/LTK; [3]) was 105%. It also gave a remaining activity at 10 µM (SIK2; [1]) of 96.7%, a remaining activity at 10 µM (SIK2; [2]) of 94.8% and a remaining activity at 10 µM (SIK2; [3]) of 98.6%.
